Test results published in PMC11012124, “Synthesis of Novel Triazine-Based Chalcones and 8,9-dihydro-7H-pyrimido[4,5-b][1,4]diazepines as Potential Leads in the Search of Anticancer, Antibacterial and Antifungal Agents” (International Journal of Molecular Sciences, 2024).
Converted amounts (≈) assume the structure as drawn.

Columns and labels:
U251 = experiment: cells; conditions: Homo sapiens, U-251, 48 h; for GI50: U251, 48 h; for CC50: read-out: LC50
DU-145 = experiment: cells; conditions: Homo sapiens, DU-145, 48 h; for CC50: read-out: LC50
RPMI-8226 = experiment: cells; conditions: Homo sapiens, RPMI-8226, 48 h; for CC50: read-out: LC50
HCT-116 = experiment: cells; conditions: Homo sapiens, HCT-116, 48 h; for CC50: read-out: LC50
MDA-MB-231/ATCC = experiment: cells; conditions: Homo sapiens, MDA-MB-231, 48 h
T-47D = experiment: cells; conditions: Homo sapiens, T47D, 48 h; for CC50: read-out: LC50
LOX IMVI = experiment: cells; conditions: Homo sapiens, 48 h
MOLT-4 = experiment: cells; conditions: Homo sapiens, MOLT-4, 48 h; for CC50: read-out: LC50
NCI-H226 = experiment: cells; conditions: Homo sapiens, NCI-H226, 48 h; for CC50: read-out: LC50
NCI-H23 = experiment: cells; conditions: Homo sapiens, NCI-H23, 48 h
SR = experiment: cells; conditions: Homo sapiens, 48 h; for CC50: read-out: LC50
A549/ATCC = experiment: cells; conditions: Homo sapiens, A549, 48 h; for CC50: read-out: LC50
BT-549 = experiment: cells; conditions: Homo sapiens, BT-549, 48 h; for CC50: read-out: LC50
PC-3 = experiment: cells; conditions: Homo sapiens, PC-3, 48 h; for CC50: read-out: LC50
SNB-19 = experiment: cells; conditions: Homo sapiens, SNB-19, 48 h
IGROV1 = experiment: cells; conditions: Homo sapiens, IGROV-1, 48 h
NCI/ADR-RES = experiment: cells; conditions: Homo sapiens, 48 h; for CC50: read-out: LC50
HOP-92 = experiment: cells; conditions: Homo sapiens, HOP-92, 48 h; for CC50: read-out: LC50
MDA-MB-435 = experiment: cells; conditions: Homo sapiens, MDA-MB-435, 48 h; for CC50: read-out: LC50
ACHN = experiment: cells; conditions: Homo sapiens, 48 h; for CC50: read-out: LC50
SW-620 = experiment: cells; conditions: Homo sapiens, SW-620, 48 h; for CC50: read-out: LC50
NCI-H522 = experiment: cells; conditions: Homo sapiens, NCI-H522, 48 h; for CC50: read-out: LC50
60 cancer cell lines = experiment: NCI-60 one-dose screen (10 μM); format: cell-based; conditions: Homo sapiens; one dose of 10 μM, mean over 60 cancer cell lines; read-out: Mean Growth Percent (MGP)
Description: Additionally, the mean of the growth percentages (MGP) of each compound against all the 60 cancer cell lines is also reported, which is used as one of the selection criteria to continue with tests at five concentration doses.

SK-MEL-2 = experiment: cells; conditions: Homo sapiens, SK-MEL-2, 48 h; for CC50: read-out: LC50
[1] = system: N. gonorrhoeae ATCC 49226; experiment: MIC on GC agar plates; format: cell-based, Neisseria gonorrhoeae; conditions: Neisseria gonorrhoeae, ATCC49226, read-out: MIC
Description: An initial screening for bacterial inhibition was performed by the agar diffusion method. […] DMSO and TSB were included as negative controls. Gentamicin and trimethoprim sulfamethoxazole were included as a positive control for growth inhibition. Derivatives showing growth inhibition were tested at least twice before being selected for the microdilution test. For N. gonorrhoeae, the agar diffusion method was also used for screening with some modifications. […] Penicillin and tetracycline were used as controls. […] Briefly, GC agar supplemented with 1% isovitalex was prepared with increasing concentrations of the new compounds and inoculated with 10 µL of a bacterial suspension (1 × 10^4 CFU). The lowest concentration of the compound that inhibited bacterial growth was determined as the MIC. Bacterial growth was examined and verified using the oxidase test. The experiments were performed in duplicate in at least two independent assays.

COc1cc(/C=C/C(=O)c2ccccc2)ccc1Oc1nc(Nc2ccc(F)cc2)nc(N(C)C)n1 [21a]
GI50 (U251): 2.84 µM
CC50 (U251): 60.6 µM
GI50 (DU-145): 27.3 µM
CC50 (DU-145): > 100 µM
GI50 (RPMI-8226): 2.83 µM
CC50 (RPMI-8226): > 100 µM
GI50 (HCT-116): 3.21 µM
CC50 (HCT-116): 45.5 µM
GI50 (MDA-MB-231/ATCC): 6.92 µM
CC50 (MDA-MB-231/ATCC; read-out: LC50): 56.1 µM
GI50 (T-47D): 3.36 µM
CC50 (T-47D): > 100 µM
GI50 (LOX IMVI): 1.6 µM
CC50 (LOX IMVI; read-out: LC50, LOX IMVI, 48 h): 6.23 µM
GI50 (MOLT-4): 2.56 µM
CC50 (MOLT-4): > 100 µM
GI50 (NCI-H226): 4.94 µM
CC50 (NCI-H226): 64.9 µM
GI50 (NCI-H23): 12.6 µM
CC50 (NCI-H23; read-out: LC50): > 100 µM
GI50 (SR): 2.9 µM
CC50 (SR): > 100 µM
GI50 (A549/ATCC): 11.7 µM
CC50 (A549/ATCC): > 100 µM
GI50 (BT-549): 12 µM
CC50 (BT-549): 68.1 µM
GI50 (PC-3): 10 µM
CC50 (PC-3): > 100 µM
GI50 (SNB-19): 10.2 µM
CC50 (SNB-19; read-out: LC50): 74.9 µM
GI50 (IGROV1): 18.7 µM
CC50 (IGROV1; read-out: LC50): > 100 µM
GI50 (NCI/ADR-RES): 7.04 µM
CC50 (NCI/ADR-RES): 58.5 µM
GI50 (HOP-92): 2.08 µM
CC50 (HOP-92): > 100 µM
GI50 (MDA-MB-435): 7.39 µM
CC50 (MDA-MB-435): 94.3 µM
GI50 (ACHN): 8.29 µM
CC50 (ACHN): > 100 µM
GI50 (SW-620): 1.81 µM
CC50 (SW-620): 8.7 µM
GI50 (NCI-H522): 5.15 µM
CC50 (NCI-H522): > 100 µM
activity at 10 µM (60 cancer cell lines): 24.6%
GI50 (SK-MEL-2): 4.68 µM
CC50 (SK-MEL-2): 63.1 µM

Nc1nc(N)c2c(n1)NC(c1ccc(F)cc1)CC(c1ccc(Nc3nc(NCCO)nc(Nc4ccc(Cl)cc4)n3)cc1)=N2 (centres unmarked) [33f]
GI50 (U251): 1.37 µM
CC50 (U251): 5.43 µM
GI50 (DU-145): 1.75 µM
CC50 (DU-145): 7 µM
GI50 (RPMI-8226): 1.01 µM
CC50 (RPMI-8226): > 100 µM
GI50 (HCT-116): 1.2 µM
CC50 (HCT-116): 5.23 µM
GI50 (MDA-MB-231/ATCC): 1.78 µM
GI50 (T-47D): 1.27 µM
CC50 (T-47D): 8.09 µM
GI50 (LOX IMVI): 1.52 µM
GI50 (MOLT-4): 0.532 µM
CC50 (MOLT-4): > 100 µM
GI50 (NCI-H226): 2.49 µM
CC50 (NCI-H226): 37.9 µM
GI50 (SR): 0.672 µM
CC50 (SR): > 100 µM
GI50 (A549/ATCC): 3.12 µM
CC50 (A549/ATCC): > 100 µM
GI50 (BT-549): 1.56 µM
CC50 (BT-549): 6.47 µM
GI50 (PC-3): 1.72 µM
CC50 (PC-3): > 100 µM
GI50 (SNB-19): 1.76 µM
GI50 (IGROV1): 1.7 µM
GI50 (NCI/ADR-RES): 7.73 µM
CC50 (NCI/ADR-RES): > 100 µM
MIC [1]: 1 µg/mL (≈ 1.59 µM)
GI50 (HOP-92): 1.25 µM
CC50 (HOP-92): 10.2 µM
GI50 (MDA-MB-435): 1.7 µM
CC50 (MDA-MB-435): 7.42 µM
GI50 (ACHN): 3.22 µM
CC50 (ACHN): > 100 µM
GI50 (SW-620): 1.6 µM
CC50 (SW-620): 6.68 µM
GI50 (NCI-H522): 1.43 µM
CC50 (NCI-H522): 6.16 µM
activity at 10 µM (60 cancer cell lines): -3.41%
GI50 (SK-MEL-2): 1.67 µM
CC50 (SK-MEL-2): 5.75 µM
